{"source": "PubChem BioAssay AID328", "about": "(DTP/NCI, 2004)", "system": "BDF1 mice, P388 leukemia ip, median survival T/C", "test": "NCI In Vivo Anticancer Drug Screen. Data for tumor model P388 Leukemia (intraperitoneal) in B6D2F1 (BDF1) mice", "settings": "endpoint: median survival time, higher = longer survival", "in_short": "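Survival ratio, drug arm over vehicle arm, in mice with a transplanted tumour.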", "key": {"[1]": {"settings": "dose: 50.0 mg/kg/injection, schedule: Q01DX009 (ip), vehicle: saline with Tween-80"}, "[2]": {"settings": "dose: 100.0 mg/kg/injection, schedule: Q01DX009 (ip), vehicle: saline with Tween-80"}, "[3]": {"settings": "dose: 25.0 mg/kg/injection, schedule: Q01DX009 (ip), vehicle: Klucel (hydroxypropylcellulose) (HPC)"}, "[4]": {"settings": "dose: 50.0 mg/kg/injection, schedule: Q01DX009 (ip), vehicle: Klucel (hydroxypropylcellulose) (HPC)"}, "[5]": {"settings": "dose: 100.0 mg/kg/injection, schedule: Q01DX009 (ip), vehicle: Klucel (hydroxypropylcellulose) (HPC)"}}, "note": "Where “and” joins values, the source holds several entries; their conditions need not be identical. Identical values can stand only once. Toxic doses and inconclusive results are not listed.", "data": [{"smiles": "C[n+]1c(-c2ccccc2)c2cc(N)ccc2c2ccccc21", "values": [{"measurement": "T/C", "setting": "dose: 3.1 mg/kg/injection, schedule: Q04DX003 (ip), vehicle: saline", "value": "110 % of control"}, {"measurement": "T/C", "setting": "dose: 6.6 mg/kg/injection, schedule: Q01DX009 (ip), vehicle: saline", "value": "153 % of control"}, {"measurement": "T/C", "setting": "dose: 10.0 mg/kg/injection, schedule: Q01DX009 (ip), vehicle: saline", "value": "165 % of control and 181 % of control"}, {"measurement": "T/C", "setting": "dose: 10.0 mg/kg/injection, schedule: Q04DX003 (ip), vehicle: saline", "value": "122 % of control"}]}, {"smiles": "C/C(=C\\Cl)CN(C)C", "values": [{"measurement": "T/C", "setting": "dose: 56.25 mg/kg/injection, schedule: Q01DX001 (ip), vehicle: saline", "value": "100 % of control"}, {"measurement": "T/C", "setting": "dose: 56.25 mg/kg/injection, schedule: Q04DX003 (ip), vehicle: saline", "value": "95 % of control"}, {"measurement": "T/C", "setting": "dose: 112.5 mg/kg/injection, schedule: Q01DX001 (ip), vehicle: saline", "value": "86 % of control"}, {"measurement": "T/C", "setting": "dose: 112.5 mg/kg/injection, schedule: Q04DX003 (ip), vehicle: saline", "value": "90 % of control"}, {"measurement": "T/C", "setting": "dose: 150.0 mg/kg/injection, schedule: Q01DX009 (ip), vehicle: saline", "value": "105 % of control"}, {"measurement": "T/C", "setting": "dose: 225.0 mg/kg/injection, schedule: Q01DX001 (ip), vehicle: saline", "value": "100 % of control"}, {"measurement": "T/C", "setting": "dose: 225.0 mg/kg/injection, schedule: Q01DX009 (ip), vehicle: saline", "value": "105 % of control"}]}, {"smiles": "CC1(C)C2CCC(CN)C1C2", "note": "(stereo not given)", "values": [{"measurement": "T/C", "setting": "dose: 100.0 mg/kg/injection, schedule: Q01DX009 (ip), vehicle: other", "value": "106 % of control"}]}, {"smiles": "COc1ccc(-n2c(=O)c(N=Nc3ccccc3)c(O)n(-c3ccc(C)cc3)c2=S)cc1", "values": [{"measurement": "T/C", "setting": "dose: 50.0 mg/kg/injection, schedule: Q01DX001 (ip), vehicle: saline sonified", "value": "90 % of control"}, {"measurement": "T/C", "setting": "dose: 100.0 mg/kg/injection, schedule: Q01DX001 (ip), vehicle: saline sonified", "value": "100 % of control"}, {"measurement": "T/C", "setting": "dose: 200.0 mg/kg/injection, schedule: Q01DX001 (ip), vehicle: saline sonified", "value": "100 % of control"}]}, {"smiles": "CS(=O)CC(O)(c1ccccc1)c1ccncc1", "note": "(stereo not given)", "values": [{"measurement": "T/C", "setting": "[1]", "value": "99 % of control"}, {"measurement": "T/C", "setting": "[2]", "value": "112 % of control"}, {"measurement": "T/C", "setting": "dose: 200.0 mg/kg/injection, schedule: Q01DX009 (ip), vehicle: saline with Tween-80", "value": "110 % of control"}]}, {"smiles": "C[C@@H]1C[C@@]2(C)[C@@H](CC[C@@H]3[C@@H]2CC[C@]2(C)[C@@H](OC4CCCCO4)CC[C@@H]32)CC1=O", "note": "(stereo not given in full)", "values": [{"measurement": "T/C", "setting": "[3]", "value": "88 % of control"}, {"measurement": "T/C", "setting": "[4]", "value": "92 % of control"}, {"measurement": "T/C", "setting": "[5]", "value": "88 % of control and 100 % of control"}, {"measurement": "T/C", "setting": "dose: 100.0 mg/kg/injection, schedule: Q04DX003 (ip), vehicle: Klucel (hydroxypropylcellulose) (HPC)", "value": "86 % of control and 91 % of control"}, {"measurement": "T/C", "setting": "dose: 200.0 mg/kg/injection, schedule: Q01DX009 (ip), vehicle: Klucel (hydroxypropylcellulose) (HPC)", "value": "87 % of control and 100 % of control"}, {"measurement": "T/C", "setting": "dose: 200.0 mg/kg/injection, schedule: Q04DX003 (ip), vehicle: Klucel (hydroxypropylcellulose) (HPC)", "value": "87 % of control and 95 % of control"}, {"measurement": "T/C", "setting": "dose: 400.0 mg/kg/injection, schedule: Q01DX009 (ip), vehicle: Klucel (hydroxypropylcellulose) (HPC)", "value": "105 % of control"}, {"measurement": "T/C", "setting": "dose: 400.0 mg/kg/injection, schedule: Q04DX003 (ip), vehicle: Klucel (hydroxypropylcellulose) (HPC)", "value": "90 % of control and 91 % of control"}]}, {"smiles": "COC(OC)c1[nH]c(=S)[nH]c(=O)c1C", "values": [{"measurement": "T/C", "setting": "dose: 100.0 mg/kg/injection, schedule: Q04DX003 (sc), vehicle: olive oil, sesame oil, peanut oil", "value": "90 % of control"}, {"measurement": "T/C", "setting": "dose: 200.0 mg/kg/injection, schedule: Q04DX003 (sc), vehicle: olive oil, sesame oil, peanut oil", "value": "95 % of control"}, {"measurement": "T/C", "setting": "dose: 400.0 mg/kg/injection, schedule: Q04DX003 (sc), vehicle: olive oil, sesame oil, peanut oil", "value": "90 % of control"}]}, {"smiles": "FC(F)(F)c1ccc2c(c1)N(CCCN1CCN(CCN3CCOCC3)CC1)c1ccccc1S2", "values": [{"measurement": "T/C", "setting": "dose: 12.5 mg/kg/injection, schedule: Q04DX003 (ip), vehicle: saline", "value": "99 % of control and 100 % of control"}, {"measurement": "T/C", "setting": "dose: 25.0 mg/kg/injection, schedule: Q04DX003 (ip), vehicle: saline", "value": "86 % of control and 99 % of control"}, {"measurement": "T/C", "setting": "dose: 50.0 mg/kg/injection, schedule: Q04DX003 (ip), vehicle: saline", "value": "104 % of control and 112 % of control"}]}, {"smiles": "CC#CC(=O)O", "values": [{"measurement": "T/C", "setting": "dose: 12.5 mg/kg/injection, schedule: Q01DX009 (ip), vehicle: saline with Tween-80", "value": "100 % of control"}, {"measurement": "T/C", "setting": "dose: 25.0 mg/kg/injection, schedule: Q01DX009 (ip), vehicle: saline with Tween-80", "value": "106 % of control"}, {"measurement": "T/C", "setting": "[1]", "value": "109 % of control"}, {"measurement": "T/C", "setting": "[2]", "value": "106 % of control"}]}, {"smiles": "O=[N+]([O-])C(CO)(CO)CC(F)(F)F", "values": [{"measurement": "T/C", "setting": "dose: 3.13 mg/kg/injection, schedule: Q01DX009 (ip), vehicle: saline", "value": "100 % of control"}, {"measurement": "T/C", "setting": "dose: 3.13 mg/kg/injection, schedule: Q04DX003 (ip), vehicle: saline", "value": "100 % of control"}, {"measurement": "T/C", "setting": "dose: 6.25 mg/kg/injection, schedule: Q01DX009 (ip), vehicle: saline", "value": "104 % of control"}, {"measurement": "T/C", "setting": "dose: 6.25 mg/kg/injection, schedule: Q04DX003 (ip), vehicle: saline", "value": "100 % of control"}, {"measurement": "T/C", "setting": "dose: 12.5 mg/kg/injection, schedule: Q01DX009 (ip), vehicle: saline", "value": "90 % of control"}]}, {"smiles": "COc1cc2c(cc1OC)C1CNCC1C(c1cc(OC)c(OC)c(OC)c1)C2", "note": "(stereo not given)", "values": [{"measurement": "T/C", "setting": "dose: 12.5 mg/kg/injection, schedule: Q01DX009 (ip), vehicle: Klucel (hydroxypropylcellulose) (HPC)", "value": "105 % of control"}, {"measurement": "T/C", "setting": "[3]", "value": "100 % of control"}, {"measurement": "T/C", "setting": "[4]", "value": "100 % of control"}, {"measurement": "T/C", "setting": "[5]", "value": "90 % of control"}]}]}
